This is an account of results in ChEMBL document CHEMBL4321804, “Myrmenaphthol A, Isolated from a Hawaiian Sponge of the Genus Myrmekioderma” (J Nat Prod, 2019).

≈ marks a conversion by molar mass, not a printed value. Calls of active or inactive are those of the source. The calls are words filed in the database; no cut-off is given here.

For assay [1], the target named is T1, Estrogen receptor (Homo sapiens) (UniProt P03372).
T1 sequence (whole entry): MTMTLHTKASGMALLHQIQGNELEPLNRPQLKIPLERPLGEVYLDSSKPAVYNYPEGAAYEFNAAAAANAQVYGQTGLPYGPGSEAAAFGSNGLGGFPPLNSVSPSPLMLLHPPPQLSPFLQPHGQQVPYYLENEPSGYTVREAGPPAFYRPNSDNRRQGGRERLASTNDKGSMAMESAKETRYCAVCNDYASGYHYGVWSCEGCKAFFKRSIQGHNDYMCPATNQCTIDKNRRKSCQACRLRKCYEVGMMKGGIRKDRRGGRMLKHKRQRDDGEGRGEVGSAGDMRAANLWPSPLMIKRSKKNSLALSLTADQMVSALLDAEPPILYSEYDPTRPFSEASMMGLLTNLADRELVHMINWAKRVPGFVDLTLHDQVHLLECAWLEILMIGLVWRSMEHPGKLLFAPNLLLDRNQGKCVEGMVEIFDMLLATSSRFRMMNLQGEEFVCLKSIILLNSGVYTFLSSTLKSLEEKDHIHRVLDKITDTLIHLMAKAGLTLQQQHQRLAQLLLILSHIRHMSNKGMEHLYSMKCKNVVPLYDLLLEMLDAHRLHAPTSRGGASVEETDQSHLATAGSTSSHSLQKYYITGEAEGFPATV
As to the kind of experiment: Agonist activity at GST-tagged ER-alpha ligand binding domain (unknown origin) assessed as fluorescein PGC1a coactivator peptide recruitment incubated up to 24 hrs by LanthaScreen TR-FRET co-regulator assay.

Assay [2] concerns the target T1, Estrogen receptor (Homo sapiens). As to the kind of experiment: Inhibition of 17-beta-estradiol-stimulated human ER alpha-binding domain at 100 uM by LanthaScreen TR-FRET coregulator assay.
For assay [3] the target is unchanged. Description: Antagonist activity at 17-beta-estradiol-stimulated GST-tagged ER-alpha ligand binding domain (unknown origin) assessed as fluorescein PGC1a coactivator peptide recruitment incubated up to 24 hrs by LanthaScreen TR-FRET co-regulator assay.
A further assay concerns the target T2, Estrogen receptor (Homo sapiens, UniProt P03372).
T2 sequence (P03372 whole entry): T1 sequence (whole entry)
Description: Displacement of [3H]-estradiol from human recombinant estrogen receptor expressed in insect cells incubated for 17 hrs by radioactive receptor binding assay.

A further assay relates to HeLa. As to the kind of experiment: Cytotoxicity against human HeLa cells incubated for 72 hrs by MTT assay. It is filed as functional, cell-based.
A further assay concerns P388. Description: Cytotoxicity against mouse P388 cells incubated for 72 hrs by MTT assay. It is filed as functional, cell-based. Particulars: P388, 72 h.

As for `C/C=C1/C(=O)C(O)=C2c3ccc4ccc(O)cc4c3CC[C@@]21C`, the outcome in assay [1] was inactive. The same molecule had an inhibition in assay [2] of 30%. Besides, the inhibition result in assay [3] is “inactive”.

For the molecule `C[C@@H]1C[C@@]12c1ccc3c(ccc4ccc(O)cc43)c1C[C@@H]2O`, the outcome in assay [1] was inactive. The same molecule returned an inhibition in assay [2] of 30%. The IC50 at Estrogen receptor came to 10 nM; in the assay on HeLa, 0.4 µg/mL (≈ 1.38 µM); in the assay on P388 it was 4.5 µg/mL (≈ 15.5 µM). The inhibition result in assay [3] was “inactive”.
